Columns and labels:
E coli 11303 SM-1 = assay: Growth of mutant E. coli in medium containing glyphosate; assay type: cell-based; settings: 10 mM or higher glyphosate in the growth medium
Protocol: Cells of E. coli ATCC 11303 were transferred to medium A and incubated at 37° C.
This mutant bacterium was designated E coli 11303 SM-1. The AroA gene encoding EPSP synthase from this mutant bacterium was isolated as follows.

[1] = test system: Brassica napus calli transformed with pMON600; assay: Growth of pMON600-transformed calli on glyphosate; assay type: cell-based; settings: 0.5 mM glyphosate, three gentamicin resistant calli
[2] = test system: petunia leaf disks transformed with CaMV35S/EPSP synthase gene (pMON546); assay: Callus growth of petunia leaf disks on glyphosate media, transformed with pMON546; assay type: cell-based
Protocol: (§1) Leaf disks with diameters of 6 mm (1/4 inch) were taken from surface-sterilized petunia leaves. They were cultivated on MS104 agar medium for 2 days to promote partial cell wall formation at the wound surfaces. They were then submerged in a culture of A. tumefaciens cells containing both pMON546 and GV3111-SE which had been grown overnight in Luria broth at 28° C., and shaken gently. The cells were removed from the bacterial suspension, blotted dry, and incubated upside down on filter paper placed over "nurse" cultures of tobacco cells, as described in Horsch (1980). After 2 or 3 days, the disks were transferred to petri dishes containing MS media with 500 μg/ml carbenicillin and 0., 0.1, 0.25, or 0.5 mM glyphosate (sodium salt), with no nurse cultures.
(§2) Control tissue was created using A. tumefaciens cells containing the helper plasmid pGV3111-SE and a different plant transformation vector, pMON505, which contained a T-DNA region with a NOS/NPTII/NOS kanamycin resistance gene and a NOS selectable marker gene identical to pMON546, but without the CaMV35S/EPSP synthase gene.
(§3) Within 10 days after transfer to the media containing glyphosate, actively growing callus tissue appeared on the periphery of all disks on the control plate containing no glyphosate. […] This confirms that the CaMV35S/EPSP synthase gene conferred glyphosate resistance upon the transformed cells.

[3] = biological target: T1, Arabidopsis EPSP synthase with the alanine for glycine substitution at position 101 (Arabidopsis thaliana, UniProt P05466, G177A); assay: EPSP synthase activity in protein extracts of Brassica napus calli transformed with pMON600; assay type: biochemical
T1 construct: the expressed Arabidopsis EPSP synthase would include the alanine for glycine substitution at position 101 of the mature enzyme; expressed in transfected cells; host or cells: Brassica napus calli transformed by Agrobacterium harboring pMON600, protein extract
Protocol: The Agrobacterium harboring the pMON600 plasmid was used to transform explants of Brassica napus. Three gentamicin resistant calli were obtained. […] Proteins were extracted from samples of the calli and were assayed for EPSP synthase activity. All three of the calli contained EPSP synthase activity that was resistant to 0.5 mM glyphosate.
The EPSP synthase in the extracts was further characterized by titrating the resistance to glyphosate.

[4] = biological target: T2, wild-type maize EPSP synthase (Zea mays, UniProt A0A1D6NVZ6); assay: EPSP synthase activity of in vitro translation product of pMON9951; assay type: biochemical; settings: 1.0 mM glyphosate
T2 sequence (A0A1D6NVZ6 1-506): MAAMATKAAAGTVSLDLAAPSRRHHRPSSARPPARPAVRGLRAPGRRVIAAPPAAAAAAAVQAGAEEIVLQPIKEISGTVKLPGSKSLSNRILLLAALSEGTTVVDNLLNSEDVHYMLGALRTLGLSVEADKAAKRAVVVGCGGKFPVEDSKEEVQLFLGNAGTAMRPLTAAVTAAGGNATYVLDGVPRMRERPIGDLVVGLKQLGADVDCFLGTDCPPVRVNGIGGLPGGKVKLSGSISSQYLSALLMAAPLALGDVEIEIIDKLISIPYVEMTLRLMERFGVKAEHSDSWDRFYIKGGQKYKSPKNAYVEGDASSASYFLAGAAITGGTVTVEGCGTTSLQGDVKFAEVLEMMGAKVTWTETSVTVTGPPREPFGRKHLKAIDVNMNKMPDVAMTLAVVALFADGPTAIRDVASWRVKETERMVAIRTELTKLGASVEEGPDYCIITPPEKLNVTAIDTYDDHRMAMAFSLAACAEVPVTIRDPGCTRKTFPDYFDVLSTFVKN
Protocol: The linearized plasmid DNA was transcribed in vitro with T7 polymerase essentially as described by Krieg et al. 1984. The standard reaction buffer contained 40 mM Tris-HCl (pH 7.9), 6 mM MgCl2, 10 mM dithiothreitol, 2 mM spermidine, 80 U RNAsin ribuonuclease inhibitor, 0.5 mM each of ATP, GTP, CTP and UTP, in a final reaction volume of 100 μl. The final RNA pellet was resuspended in 20 μl of sterile water and stored at -80° C. A standard translation reaction contained 100 μl of nuclease-treated rabbit reticulocyte lysate, 5.7 μl of a 19-amino acid mixture (minus methionine at 1 mM each, 5.7 μl of RNA (total RNA transcripts derived from 0.63 μg of plasmid DNA), 16 μl RNAsin (20U/μl) ribonuclease inhibitor, and 58.3 μl of [^35 S] methionine (14-15 mCi/ml). The in vitro translation products were stored frozen at -80 ° C.
The products of the in vitro translation were then assayed for EPSP synthase activity as described herein.

[5] = test system: MP4 cells (Mitchell diploid petunia); assay: MP4 suspension culture in MS media containing glyphosate; assay type: cell-based; settings: 0.5 mM glyphosate (sodium salt) in MS media, estimated; read-out: cells which survived, share of the starting population
Protocol: The starting cell line, designated as the MP4 line, was derived from a Mitchell diploid petunia (see e.g., Ausubel 1980). The MP4 cells were suspended in Murashige and Skoog (MS) culture media, (GIBCO, Grand Island, N.Y.) All transfers involved dispensing 10 ml of suspension cultures into 50 ml of fresh media. Cultivation periods until the next transfer ranged from 10 to 14 days, and were based on visual indications that the culture was approaching saturation.
Approximately 10 ml of saturated suspension culture (containing about 5×10^6 cells) were transferred into 50 ml of MS media containing 0.5 mM glyphosate. The sodium salt of glyphosate was used throughout the experiments described herein. The large majority of cells were unable to reproduce in the presence of the glyphosate. The cells which survived (estimated to be less than 1% of the starting population) were cultured in 0.5 mM glyphosate and transferred to fresh media containing glyphosate every 10 to 14 days.

[6] = test system: control petunia leaf disks (pMON505); assay: Callus growth of petunia leaf disks on glyphosate media, control vector pMON505; assay type: cell-based
Protocol: as §1, §2, §3

T1 sequence (P05466 77-520 G177A): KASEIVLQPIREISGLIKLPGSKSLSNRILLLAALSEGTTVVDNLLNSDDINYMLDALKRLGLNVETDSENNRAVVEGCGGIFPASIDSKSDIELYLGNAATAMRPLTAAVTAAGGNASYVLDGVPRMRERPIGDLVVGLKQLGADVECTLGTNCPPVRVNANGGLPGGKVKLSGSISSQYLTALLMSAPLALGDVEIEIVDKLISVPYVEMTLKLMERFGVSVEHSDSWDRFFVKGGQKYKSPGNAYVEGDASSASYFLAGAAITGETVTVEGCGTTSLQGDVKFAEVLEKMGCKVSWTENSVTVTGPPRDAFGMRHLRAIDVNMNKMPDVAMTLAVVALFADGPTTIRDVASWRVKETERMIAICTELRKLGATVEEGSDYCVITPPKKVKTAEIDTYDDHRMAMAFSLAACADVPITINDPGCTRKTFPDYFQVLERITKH

**Q.** With `O=C(O)CNCP(=O)(O)O` [glyphosate, N-phosphonomethylglycine] as the compound, how does the “growth in the presence of glyphosate” value (E coli 11303 SM-1) read?
**A.** could grow rapidly

**Q.** And the “callus growth on glyphosate” value [1]?
**A.** capable of growth

**Q.** What about the “callus growth, control disks versus transformed tissue” value ([2]; 0.1 mM glyphosate, within 10 days after transfer) of the same compound?
**A.** little detectable difference

**Q.** And the callus growth ([2]; 0.25 mM glyphosate, transformed tissue)?
**A.** substantial growth

**Q.** What about the callus growth ([2]; 0.5 mM glyphosate, transformed disks) of the same compound?
**A.** a significant number of calli grew

**Q.** What about the IC50 [3] of the same compound?
**A.** 7.5 mM

**Q.** What about the “EPSP synthase activity in the presence of glyphosate” value ([3]; 0.5 mM glyphosate, all three calli) of the same compound?
**A.** resistant

**Q.** What about the “EPSP synthase activity in the presence of glyphosate” value [4] of the same compound?
**A.** no activity was detected

**Q.** What about the viability at 500 µM [5] of the same compound?
**A.** < 1%

**Q.** What about the callus growth ([6]; 0.25 mM glyphosate) of the same compound?
**A.** very little growth of callus

**Q.** What about the callus growth ([6]; 0.5 mM glyphosate) of the same compound?
**A.** no callus growth
